Where a SMILES comes first, the peptide text is derived from it. [ ]: non-standard residue; d: D form. The star is where a group is joined. Trp(5-OH) = N[C@@H](Cc1c[nH]c2ccc(O)cc12)C(=O)O; His(π-Bn) = N[C@@H](Cc1cncn1Cc1ccccc1)C(=O)O; Phe(4-NH2) = Nc1ccc(C[C@H](N)C(=O)O)cc1; 4Pal = N[C@@H](Cc1ccncc1)C(=O)O; Ac6c = NC1(C(=O)O)CCCCC1; Dpg = CCCC(N)(CCC)C(=O)O; Bn = c1ccc(C*)cc1
The molecules below were run against T1, human glucagon-like peptide-1 receptor (GLP-1R) (Homo sapiens, UniProt P43220) (assay: Human GLP-1 receptor cell-based assay (flash luminescence, Target Activation phase)). Settings: CHO chAMPion cells stably co-expressing human GLP-1R, Photina and cAMP-activated calcium channel; agonist activity; normalization by forskolin at 10 μM; ^a) values from single experiment; read-out: EC50 (μM) Target Activation (TA).
T1 construct: host or cells: CHO chAMPion cells
T1 sequence (P43220 24-463): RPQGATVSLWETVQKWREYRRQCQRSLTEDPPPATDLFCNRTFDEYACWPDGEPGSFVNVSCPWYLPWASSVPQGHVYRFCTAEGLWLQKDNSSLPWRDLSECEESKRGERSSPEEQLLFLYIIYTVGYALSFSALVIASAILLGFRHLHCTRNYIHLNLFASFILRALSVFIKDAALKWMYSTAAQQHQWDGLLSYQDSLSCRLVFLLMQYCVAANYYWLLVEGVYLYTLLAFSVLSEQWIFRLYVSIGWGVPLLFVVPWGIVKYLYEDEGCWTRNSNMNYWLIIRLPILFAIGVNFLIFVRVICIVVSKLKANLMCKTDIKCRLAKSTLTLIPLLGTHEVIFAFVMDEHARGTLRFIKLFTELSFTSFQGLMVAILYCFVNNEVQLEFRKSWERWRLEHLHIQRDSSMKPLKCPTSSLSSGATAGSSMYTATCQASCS
Description: CHO chAMPion cells (Axxam SpA; S. Corazza, Assay Drug Dev. Technol. 2009, 7, 304-307) stably co-expressing the human glucagon-like peptide-1 receptor (GLP-1R), the Ca^2+-sensitive photoprotein PHOTINA® (S. Bovolenta et al., J. Biomol. Screen. 2007, 12, 694-704) and a mutated cAMP-activated calcium ion channel (WO2004/083803 A2) were used to monitor GLP-1R signaling after stimulation with an agonist. Activation of the Gas-coupled GPCR GLP-1R was monitored by measuring the flash luminescence of the Ca^2+-sensitive photoprotein as reporter system with FLIPR^TETRA screening instrumentation (Molecular Devices) upgraded with an ICCD Camera (MDC). For data quality check and data analysis the Genedata SCREENER® software was used.
The reference agonist GLP-1 (glucagon-like peptide-1 amide fragment 7-36) and forskolin were purchased from Sigma (cat. G8147 and F6886, respectively) and prepared according to each ligand's specifications. All handling of ligands were done to ensure proper control throughout the experiments. The steps of the implemented workflow and data analysis are mainly as follows:
Stably transfected chAMPion cells are seeded 10000 c/w in 384 MTP in Dulbecco's MEM/nutrient mix F12 (BioWhittaker cat. BE04-687F/U1; 500 mL) supplemented with sodium pyruvate (BioWhittaker cat. BE13-115E; 5 mL of 100 mM solution), HEPES (BioWhittaker cat. BE17-737E; 6.5 mL of 1M solution), sodium bicarbonate (BioWhittaker cat. BE17-613E; 25 mL of 7.5% solution), fetal bovine serum (Euroclone cat. ECS 0180L; 50 mL), penicillin-streptomycin (BioWhittaker cat. DE17-602E; 5 mL of 100×solution), 1 mg/mL G418 (selection antibiotic for GLP-1R) and 200 μg/mL hygromycin in 25 μL/well for 24 hours. On the day of the experiment, plates are removed from the incubator, freed from the growth medium, equilibrated at room temperature for 1 h, loaded with 30 μl/well of Ca^2+ free Tyrode's buffer containing 20 μM coelentrazine and 500 μM IBMX, and incubated for 4 hours at room temperature.
All compounds were tested at 8 concentrations, starting from 50 μM in quadruplicate, intra-plate (dilution step 1:2.15) to determine EC50 values. After incubation, the volume in all the wells is flattened to 20 αL by aspiration with a CYBIO®-VARIO pipettor. First Injection (10 μL of test compounds in Ca^2+ free Tyrode's buffer, DMSO 0.5% v/v and BSA 0.01%; or 10 μL of reference compounds GLP-1 or forskolin in Ca′ free Tyrode's buffer, DMSO 0.5% v/v and BSA 0.01%) is performed by the FLIPR^TETRA and the kinetic response is optionally monitored over a period of 60 seconds. Incubation for 30 minutes at room temperature is followed by the Second Injection (Tyrode's buffer+10 mM CaCl2)) and the kinetic response is monitored over a period of 60 seconds.
The kinetic response is divided into two distinct phases: monitoring the kinetic response after the First Injection, termed Compound Addition (CA), and monitoring the kinetic response after the Second Injection of 10 mM CaCl2, termed Target Activation (TA). Agonist activity of compounds is evaluated in the Target Activation (TA) phase and it is based on normalization to TA activation by forskolin at 10 μM or GLP-1 at 3.16 nM (EC100)
A good correlation was observed between EC50, data normalized by forskolin and by GLP-1.

Row | Structure (SMILES) | EC50 [µM]
1 | C[C@@H]1NC(=O)[C@H](Cc2ccc(O)cc2)NC(=O)[C@H](CCC(N)=O)NC(=O)[C@H](Cc2c[nH]c3ccccc23)NC(=O)[C@H](Cc2ccccc2)NC(=O)C2(CCCCC2)NC(=O)[C@H]2CCCN2C(=O)[C@H](Cc2ccc(OCc3ccccc3)cc2)NC(=O)[C@H](CCC(=O)O)NC(=O)[C@H](Cc2c[nH]c3ccccc23)NC1=O [compound 22, cyclo(-Phe-Trp-Gln-Tyr-Ala-Trp-Glu-Tyr(Bn)-^DPro-Chx-)] (cyclo(FWQYAWEY(Bn)[dP][Ac6c])) | 0.72 ± 0.4
2 | C[C@@H]1NC(=O)[C@H](Cc2ccc(O)cc2)NC(=O)[C@H](CCC(N)=O)NC(=O)[C@H](Cc2c[nH]c3ccccc23)NC(=O)[C@H](Cc2ccccc2)NC(=O)C2(CCCCC2)NC(=O)[C@H]2CCCN2C(=O)[C@H](Cc2ccccc2)NC(=O)[C@H](CCC(=O)O)NC(=O)[C@H](Cc2c[nH]c3ccccc23)NC1=O [compound 24, cyclo(-Phe-Trp-Gln-Tyr-Ala-Trp-Glu-Phe-^DPro-Chx-)] (cyclo(FWQYAWEF[dP][Ac6c])) | 0.89 ± 0.51
3 | CCCC1(CCC)NC(=O)[C@H]2CCCN2C(=O)[C@H](Cc2ccccc2)NC(=O)[C@H](CCC(=O)O)NC(=O)[C@H](Cc2c[nH]c3ccccc23)NC(=O)[C@H](C)NC(=O)[C@H](CC(C)C)NC(=O)[C@H](CC(C)C)NC(=O)[C@H](CCC(=O)O)NC(=O)[C@H](Cc2ccccc2)NC1=O [compound 26, cyclo(-Phe-Glu-Leu-Leu-Ala-Trp-Glu-Phe-^DPro-Dpg-)] (cyclo(FELLAWEF[dP][Dpg])) | 1 ± 0.5
4 | C[C@@H]1NC(=O)[C@H](Cc2ccccc2)NC(=O)[C@H](CCC(N)=O)NC(=O)[C@H](Cc2c[nH]c3ccccc23)NC(=O)[C@H](Cc2ccccc2)NC(=O)C2(CCCCC2)NC(=O)[C@H]2CCCN2C(=O)[C@H](Cc2ccc(O)cc2)NC(=O)[C@H](CCC(=O)O)NC(=O)[C@H](Cc2c[nH]c3ccccc23)NC1=O [compound 27, cyclo(-Phe-Trp-Gln-Phe-Ala-Trp-Glu-Tyr-^DPro-Chx-)] (cyclo(FWQFAWEY[dP][Ac6c])) | 0.58
5 | CC(C)C[C@@H]1NC(=O)[C@H](CCC(=O)O)NC(=O)[C@H](Cc2ccccc2)NC(=O)C2(CCCCC2)NC(=O)[C@H]2CCCN2C(=O)[C@H](Cc2ccc(O)cc2)NC(=O)[C@H](Cc2c[nH]c3ccc(O)cc23)NC(=O)[C@H](Cc2c[nH]c3ccccc23)NC(=O)[C@H](C)NC(=O)[C@H](Cc2ccc(O)cc2)NC1=O [compound 28, cyclo(-Phe-Glu-Leu-Tyr-Ala-Trp-Trp(5OH)-Tyr-^DPro-Chx-)] (cyclo(FELYAW[Trp(5-OH)]Y[dP][Ac6c])) | 1.2 ± 0.9
6 | C[C@@H]1NC(=O)[C@H](Cc2ccc(O)cc2)NC(=O)[C@H](CCC(N)=O)NC(=O)[C@H](Cc2c[nH]c3ccccc23)NC(=O)[C@H](Cc2ccccc2)NC(=O)C2(CCCCC2)NC(=O)[C@H]2CCCN2C(=O)[C@H](Cc2ccc(N)cc2)NC(=O)[C@H](CCC(=O)O)NC(=O)[C@H](Cc2c[nH]c3ccccc23)NC1=O [compound 30, cyclo(-Phe-Trp-Gln-Tyr-Ala-Trp-Glu-Phe(4NH2)-^DPro-Chx-)] (cyclo(FWQYAWE[Phe(4-NH2)][dP][Ac6c])) | 0.63
7 | C[C@@H]1NC(=O)[C@H](Cc2ccc(O)cc2)NC(=O)[C@H](CCC(N)=O)NC(=O)[C@H](Cc2ccncc2)NC(=O)[C@H](Cc2ccccc2)NC(=O)C2(CCCCC2)NC(=O)[C@H]2CCCN2C(=O)[C@H](Cc2ccc(O)cc2)NC(=O)[C@H](CCC(=O)O)NC(=O)[C@H](Cc2c[nH]c3ccccc23)NC1=O [compound 33, cyclo(-Phe-4Pal-Gln-Tyr-Ala-Trp-Glu-Tyr-^DPro-Chx-)] (cyclo(F[4Pal]QYAWEY[dP][Ac6c])) | 0.99 ± 0.37
8 | COc1ccc(C[C@@H]2NC(=O)[C@H](CC(C)C)NC(=O)[C@H](CCC(=O)O)NC(=O)[C@H](Cc3ccccc3)NC(=O)C3(CCCCC3)NC(=O)[C@H]3CCCN3C(=O)[C@H](Cc3ccc(OC)cc3)NC(=O)[C@H](CCC(=O)O)NC(=O)[C@H](Cc3c[nH]c4ccccc34)NC(=O)[C@H](C)NC2=O)cc1 [compound 34, cyclo(-Phe-Glu-Leu-Tyr(Me)-Ala-Trp-Glu-Tyr(Me)-^DPro-Chx-)] (cyclo(FELY(Me)AWEY(Me)[dP][Ac6c])) | 0.73
9 | C[C@@H]1NC(=O)[C@H](Cc2ccc(O)cc2)NC(=O)[C@H](CCC(N)=O)NC(=O)[C@H](Cc2c[nH]c3ccc(O)cc23)NC(=O)[C@H](Cc2ccccc2)NC(=O)C2(CCCCC2)NC(=O)[C@H]2CCCN2C(=O)[C@H](Cc2ccc(O)cc2)NC(=O)[C@H](CCC(=O)O)NC(=O)[C@H](Cc2c[nH]c3ccccc23)NC1=O [compound 35, cyclo(-Phe-Trp(5OH)-Gln-Tyr-Ala-Trp-Glu-Tyr-^DPro-Chx-)] (cyclo(F[Trp(5-OH)]QYAWEY[dP][Ac6c])) | 1.1 ± 0.5
10 | CC(C)C[C@@H]1NC(=O)[C@H](CCC(=O)O)NC(=O)[C@H](Cc2ccccc2)NC(=O)C2(CCCCC2)NC(=O)[C@H]2CCCN2C(=O)[C@H](Cc2cncn2Cc2ccccc2)NC(=O)[C@H](CCC(=O)O)NC(=O)[C@H](Cc2c[nH]c3ccccc23)NC(=O)[C@H](C)NC(=O)[C@H](Cc2ccc(O)cc2)NC1=O [compound 36, cyclo(-Phe-Glu-Leu-Tyr-Ala-Trp-Glu-His(Bn)-^DPro-Chx-)] (cyclo(FELYAWE[His(π-Bn)][dP][Ac6c])) | 0.85

Further molecules by falling EC50, results first:

Row | EC50 [µM] | Structure (SMILES)
11 | 0.94 ± 0.68 | CC(C)C[C@@H]1NC(=O)[C@H](CCC(=O)O)NC(=O)[C@H](Cc2ccccc2)NC(=O)C2(CCCCC2)NC(=O)[C@H]2CCCN2C(=O)[C@H](Cc2c[nH]c3ccc(O)cc23)NC(=O)[C@H](CCC(=O)O)NC(=O)[C@H](Cc2c[nH]c3ccccc23)NC(=O)[C@H](C)NC(=O)[C@H](Cc2ccc(O)cc2)NC1=O [compound 25, cyclo(-Phe-Glu-Leu-Tyr-Ala-Trp-Glu-Trp(5OH)-^DPro-Chx-)] (cyclo(FELYAWE[Trp(5-OH)][dP][Ac6c]))
12 | 0.92 ± 0.31 | COc1ccc(C[C@@H]2NC(=O)[C@H](Cc3ccccc3)NC(=O)C3(CCCCC3)NC(=O)[C@H]3CCCN3C(=O)[C@H](Cc3ccc(O)cc3)NC(=O)[C@H](CCC(=O)O)NC(=O)[C@H](Cc3c[nH]c4ccccc34)NC(=O)[C@H](C)NC(=O)[C@H](Cc3ccc(O)cc3)NC(=O)[C@H](CCC(N)=O)NC2=O)cc1 [compound 32, cyclo(-Phe-Tyr(Me)-Gln-Tyr-Ala-Trp-Glu-Tyr-^DPro-Chx-)] (cyclo(FY(Me)QYAWEY[dP][Ac6c]))
13 | 0.68 | CC(C)C[C@@H]1NC(=O)[C@H](CCC(=O)O)NC(=O)[C@H](Cc2ccccc2)NC(=O)C2(CCCCC2)NC(=O)[C@H]2CCCN2C(=O)[C@H](Cc2ccccc2)NC(=O)[C@H](CCC(=O)O)NC(=O)[C@H](Cc2c[nH]c3ccccc23)NC(=O)[C@H](C)NC(=O)[C@H](Cc2ccc(O)cc2)NC1=O [compound 31, cyclo(-Phe-Glu-Leu-Tyr-Ala-Trp-Glu-Phe-^DPro-Chx-)] (cyclo(FELYAWEF[dP][Ac6c]))
14 | 0.67 ± 0.22 | COc1ccc(C[C@@H]2NC(=O)[C@H](CCC(N)=O)NC(=O)[C@H](Cc3c[nH]c4ccccc34)NC(=O)[C@H](Cc3ccccc3)NC(=O)C3(CCCCC3)NC(=O)[C@H]3CCCN3C(=O)[C@H](CCCNC(=N)N)NC(=O)[C@H](CCC(=O)O)NC(=O)[C@H](Cc3c[nH]c4ccccc34)NC(=O)[C@H](C)NC2=O)cc1 [compound 23, cyclo(-Phe-Trp-Gln-Tyr(Me)-Ala-Trp-Glu-Arg-^DPro-Chx-)] (cyclo(FWQY(Me)AWER[dP][Ac6c]))
15 | 0.62 | COc1ccc(C[C@@H]2NC(=O)[C@H](CC(C)C)NC(=O)[C@H](CCC(=O)O)NC(=O)[C@H](Cc3ccccc3)NC(=O)C3(CCCCC3)NC(=O)[C@H]3CCCN3C(=O)[C@H](Cc3ccc(O)cc3)NC(=O)[C@H](CCC(=O)O)NC(=O)[C@H](Cc3c[nH]c4ccccc34)NC(=O)[C@H](C)NC2=O)cc1 [compound 29, cyclo(-Phe-Glu-Leu-Tyr(Me)-Ala-Trp-Glu-Tyr-^DPro-Chx-)] (cyclo(FELY(Me)AWEY[dP][Ac6c]))

Reference: patent US10730911B2, “Backbone-cyclized peptidomimetics with GLP-1R modulating activity” (POLYPHOR AG, priority 2015, dated 2020)
